Target: T1, human TG2 in THP-1/TG2 macrophages (Homo sapiens, UniProt P21980)
T1 construct: expressed in transfected cells; host or cells: THP-1 (TIB-202, ATCC) stably transduced with lentiviral pCDH-hTG2, PMA-differentiated, retinoic acid-stimulated
T1 sequence (P21980 1-687): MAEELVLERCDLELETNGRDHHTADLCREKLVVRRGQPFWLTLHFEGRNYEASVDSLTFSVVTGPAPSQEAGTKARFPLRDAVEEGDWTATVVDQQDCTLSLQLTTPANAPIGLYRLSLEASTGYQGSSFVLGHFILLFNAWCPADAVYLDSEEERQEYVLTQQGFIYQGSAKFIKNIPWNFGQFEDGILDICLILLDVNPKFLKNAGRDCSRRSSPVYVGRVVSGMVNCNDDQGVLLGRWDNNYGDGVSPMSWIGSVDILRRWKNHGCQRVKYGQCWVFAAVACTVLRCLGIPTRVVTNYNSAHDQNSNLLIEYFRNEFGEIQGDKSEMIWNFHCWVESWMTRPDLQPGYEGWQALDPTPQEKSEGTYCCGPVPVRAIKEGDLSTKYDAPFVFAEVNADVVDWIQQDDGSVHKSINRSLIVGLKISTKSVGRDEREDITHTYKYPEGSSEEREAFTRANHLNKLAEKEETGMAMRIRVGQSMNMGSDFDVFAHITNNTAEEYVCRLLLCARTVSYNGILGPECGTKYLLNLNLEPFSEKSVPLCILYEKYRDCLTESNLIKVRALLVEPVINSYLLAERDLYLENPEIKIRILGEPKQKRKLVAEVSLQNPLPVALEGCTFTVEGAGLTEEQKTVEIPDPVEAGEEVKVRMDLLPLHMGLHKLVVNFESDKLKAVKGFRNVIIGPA
Assay: Cellular inhibition of TG activity in THP-1/TG2 cells (BAP incorporation)
Assay type: cell-based
Settings: TG2 overexpressing THP-1 macrophages, Fig 2D
Description: Human monocytic THP-1 cells (TIB-202, ATCC) were transduced with a lentiviral vector (pCDH-hTG2, gift from Prof K. Mehta, University of Texas, USA) to overexpress human TG2, to ensure high protein levels in addition to their constitutive expression that can be inhibited. To obtain a stable TG2 overexpressing cell line, transduced cells (THP-1/pCDH-hTG2 (THP-1/TG2)) were positively selected with puromycin and cultured at 37°C and 5% CO2 in air in RPMI-1640 medium (Gibco) supplemented with 10% fetal calf serum (FCS; Gibco), and 50 Units/ml of penicillin and 50 μg/ml streptomycin (Gibco).
THP-1/TG2 cells cultured with 3% FCS were differentiated into macrophages with 250 nM phorbol-12-myristate-13-acetate (Sigma) for 48 h hours. Simultaneously, the cells were stimulated with 1 μM retinoic acid (Fluka) as TG2 expression inducer to ensure maximal TG2 expression and activity. The in vitro TG activity inhibition assay was performed as previously described. In detail, the cells were washed with serum free medium and incubated for 4 h (37°C, 5% CO2) with 1 mM of the TG substrate 5-(biotinamido) pentylamine (BAP, Pierce) in serum free medium. […] The total protein concentration was determined with the BCA method (Pierce, according to protocol) and adjusted to the same concentration in all samples. […] The optical density at 492 nm was measured.

Compound | effect on cellular TG2 activity (0.03 to 100 μM) | IC50 (read-out: IC50 cellular TG2 transamidating activity) [µM]
O=C(NCC1CC(Br)=NO1)C1CCCN1C(=O)OCc1cnc2ccccc2c1 (centres unmarked) [ERW1041E, 2-[(3-Bromo-4,5-dihydro-isoxazol-5-ylmethyl)-carbamoyl]-pyrrolidine-1—carboxylic acid quinolin-3-ylmethyl ester] | no effect | 
C=CC(=O)NC1CCN(S(=O)(=O)c2cccc3c(NC(=O)c4ccc(OC)c(OC)c4)cccc23)CC1 [BJJF078, 3,4-Dimethoxy-N-(5-[4-(acryloylamino)piperidine-1-sulfonyl]-naphthalen-1-yl)-benzamide] |  | 1.8
